Tests used:
ryegrass, Italian = experiment: Test D pre-/postemergence herbicide test; assay type: in vivo, Lolium multiflorum; conditions: Postemergence, Ryegrass, Italian, scale 0 to 100
Outline: (§1)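 Visual injury score, 0 (no effect) to 100 (complete control), taken 7–21 d post-treatment against untreated controls. Application was preemergence in silt loam and postemergence at 1- to 4-leaf stage, using a surfactant-containing non-phytotoxic solvent formulation.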

dayflower, VA = experiment: Test E preemergence herbicide test; assay type: in vivo, Commelina virginica; set-up: key: 0 = no effect, 100 = complete control
Outline: (§2)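 Response is a 0–100 visual rating against controls (100 = complete control), taken 21 days after preemergence treatment of seeded silt loam soil held in a greenhouse.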

bluegrass = experiment: Test D pre-/postemergence herbicide test; assay type: in vivo, Poa annua; conditions: Postemergence, Bluegrass, scale 0 to 100
Outline: as §1

sprangletop, Brdd. = experiment: Test F flood (paddy) test; assay type: in vivo, Leptochloa fascicularis; conditions: 21 d, scale 0-100
Outline: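 Pots of sterilized Tama silt loam (35:50:15 sand:silt:clay, 2.6% organic matter) were sown so crop and weeds reached the 2.0–2.5-leaf stage; greenhouse 30/27 °C, 16-h photoperiod. Pots flooded to 3 cm, compound applied into paddy water, depth maintained. Visual rating vs untreated controls after 21 d, 0–100 scale.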

Russian thistle = experiment: Test D pre-/postemergence herbicide test; assay type: in vivo, Salsola kali; conditions: Postemergence, Russian Thistle, scale 0 to 100
Outline: as §1

corn = experiment: Test E preemergence herbicide test; assay type: in vivo, Zea mays; set-up: key: 0 = no effect, 100 = complete control
Outline: as §2

O=C1NCC(c2ccc(F)c(F)c2)C1C(=O)Nc1cccc(F)c1F (stereo not drawn) [Compound 17, N-(2,3-difluorophenyl)-4-(3,4-difluorophenyl)-2-oxo-3-pyrrolidinecarboxamide]
Plant response rating (ryegrass, Italian; 16 g ai/ha): 0 | Plant response rating (ryegrass, Italian; 31 g ai/ha): 0 | Plant response rating (ryegrass, Italian; 62 g ai/ha): 0 | Plant response rating (ryegrass, Italian; 125 g ai/ha): 0 | Plant response rating (ryegrass, Italian; 250 g ai/ha): 0 | Plant response rating, Dayflower, VA (dayflower, VA; 16 g ai/ha): 0 | Plant response rating, Dayflower, VA (dayflower, VA; 31 g ai/ha): 0 | Plant response rating, Dayflower, VA (dayflower, VA; 62 g ai/ha): 0 | Plant response rating, Dayflower, VA (dayflower, VA; 125 g ai/ha): 0 | Plant response rating, Dayflower, VA (dayflower, VA; 250 g ai/ha): 0 | Plant response rating (bluegrass; 16 g ai/ha): 0 | Plant response rating (bluegrass; 31 g ai/ha): 0 | Plant response rating (bluegrass; 62 g ai/ha): 0 | Plant response rating (bluegrass; 125 g ai/ha): 0 | Plant response rating (bluegrass; 250 g ai/ha): 0 | Plant response rating, Sprangletop, Brdd. (sprangletop, Brdd.; 125 g ai/ha): 85 | Plant response rating, Sprangletop, Brdd. (sprangletop, Brdd.; 250 g ai/ha): 85 | Plant response rating, Sprangletop, Brdd. (sprangletop, Brdd.; 500 g ai/ha): 85 | Plant response rating, Sprangletop, Brdd. (sprangletop, Brdd.; 1000 g ai/ha): 85 | Plant response rating, Sprangletop, Brdd. (sprangletop, Brdd.; 2000 g ai/ha): 100 | Plant response rating (Russian thistle; 16 g ai/ha): 0 | Plant response rating (Russian thistle; 31 g ai/ha): 0 | Plant response rating (Russian thistle; 62 g ai/ha): 0 | Plant response rating (Russian thistle; 125 g ai/ha): 20 | Plant response rating (Russian thistle; 250 g ai/ha): 40 | Plant response rating, Corn (corn; 16 g ai/ha): 0 | Plant response rating, Corn (corn; 31 g ai/ha): 0 | Plant response rating, Corn (corn; 62 g ai/ha): 0 | Plant response rating, Corn (corn; 125 g ai/ha): 0 | Plant response rating, Corn (corn; 250 g ai/ha): 0

Source: US10294202B2, “Pyrrolidinones as herbicides” (FMC Corporation, priority 2013, dated 2019)
